In patent publication US20240383852A1, “ANTI-VIRAL COMPOUNDS” (INFEX Therapeutics Limited, priority 2021, published 2024):
Counter-ions that a name gives are not always drawn.

Columns and labels:
SARS-CoV-2 PLpro = target: T1, SARS-CoV-2 PLpro (Severe acute respiratory syndrome coronavirus 2, UniProt P0DTD1); assay: biochemical; conditions: 60 nM papain-like protease, 50 μM Z-RLRGG-AMC, pH 7.5, 37° C.; read-out: SARS-CoV-2 PLpro IC50
T1 construct: containing 60 nM papain-like protease

[1] = test system: human Hep G2 cells (ATCC HB-8065); assay: Cytotoxicity in Hep G2 cells (CellTiter-Glo); format: cell-based; conditions: Hep G2 cells, 100 μM test article, 24-hour exposure

## C[C@@H](NC(=O)c1cccc(N2CCN(C)CC2)c1)c1cccc2ccccc12 [Example 2, 3-(4-Methylpiperazin-1-yl)-N-[(1R)-1-(1-naphthyl)ethyl]benzamide]
SARS-CoV-2 PLpro
  IC50: < 2 µM
[1]
  % Cell Viability: 20.3%

## Cc1ccc(C2CC2)cc1C(=O)N[C@H](C)c1cccc2ccccc12 [Example 4, 5-Cyclopropyl-2-methyl-N-[(1R)-1-(1-naphthyl)ethyl]benzamide]
SARS-CoV-2 PLpro
  IC50: < 5 µM
[1]
  % Cell Viability: 56.8%

## C[C@@H](NC(=O)c1cccc(C2CCNCC2)c1)c1cccc2ccccc12 [Example 6, N-[(1R)-1-(1-Naphthyl)ethyl]-3-(4-piperidyl)benzamide Hydrochloride Salt]
SARS-CoV-2 PLpro
  IC50: < 20 µM
[1]
  % Cell Viability: 0.6%

## COc1ccc([C@@H](C)NC(=O)c2cc(N3C[C@@H]4C[C@H]3CN4C)ccc2C)cc1OC [Example 12, N-[(1R)-1-(3,4-Dimethoxyphenyl)ethyl]-2-methyl-5-[(1S,4S)-5-methyl-2,5-diazabicyclo[2.2.1]heptan-2-yl]benzamide]
SARS-CoV-2 PLpro
  IC50: < 5 µM
[1]
  % Cell Viability: 91.1%

## COc1ccc([C@@H](C)NC(=O)c2cc(N3CCCN(C)CC3)ccc2C)cc1OC [Example 13, N-[(1R)-1-(3,4-Dimethoxyphenyl)ethyl]-2-methyl-5-(4-methyl-1,4-diazepan-1-yl)benzamide]
SARS-CoV-2 PLpro
  IC50: < 10 µM
[1]
  % Cell Viability: 103.8%

## Cc1ccc(N2CCN(C)CC2)nc1C(=O)N[C@H](C)c1cccc2ccccc12 [Example 15, 3-Methyl-6-(4-methylpiperazin-1-yl)-N-[(1R)-1-(1-naphthyl)ethyl]pyridine-2-carboxamide hydrochloride]
SARS-CoV-2 PLpro
  IC50: < 10 µM
[1]
  % Cell Viability: 76.1%

## Cc1ccc(N2CCC(N)CC2)cc1C(=O)N[C@H](C)c1cccc2ccccc12 [Example 16, 5-(4-Amino-1-piperidyl)-2-methyl-N-[(1R)-1-(1-naphthyl)ethyl]benzamide]
SARS-CoV-2 PLpro
  IC50: < 5 µM
[1]
  % Cell Viability: 1.1%

## Cc1ccc(N2CC3(CNC3)C2)cc1C(=O)N[C@H](C)c1cccc2ccccc12 [Example 17, 5-(2,6-Diazaspiro[3.3]heptan-2-yl)-2-methyl-N-[(1R)-1-(1-naphthyl)ethyl]benzamide]
SARS-CoV-2 PLpro
  IC50: < 5 µM
[1]
  % Cell Viability: 34.7%

## COc1ccc([C@@H](C)NC(=O)c2cc(N3C[C@@H]4C[C@H]3CN4)ccc2C)cc1OC [Example 18, 5-[(1S,4S)-2,5-Diazabicyclo[2.2.1]heptan-2-yl]-N-[(1R)-1-(3,4-dimethoxyphenyl)ethyl]-2-methyl-benzamide]
SARS-CoV-2 PLpro
  IC50: < 20 µM
[1]
  % Cell Viability: 119.3%

## Cc1ccc(N2CCN[C@@H](C(C)C)C2)cc1C(=O)N[C@H](C)c1cccc2ccccc12 [Example 19, 5-[(3S)-3-Isopropylpiperazin-1-yl]-2-methyl-N-[(1R)-1-(1-naphthyl)ethyl]benzamide]
SARS-CoV-2 PLpro
  IC50: < 2 µM
[1]
  % Cell Viability: 1.0%

## Cc1ccc(N2CC3(CN(CCO)C3)C2)cc1C(=O)N[C@H](C)c1cccc2ccccc12 [Example 20, 5-[6-(2-Hydroxyethyl)-2,6-diazaspiro[3.3]heptan-2-yl]-2-methyl-N-[(1R)-1-(1-naphthyl)ethyl]benzamide]
SARS-CoV-2 PLpro
  IC50: < 5 µM
[1]
  % Cell Viability: 94.3%

## Cc1ccc(N2CCN(C)CC2)cc1C(=O)N[C@H](C)c1cccc2ccccc12 [Example 21, 2-Methyl-5-(4-methylpiperazin-1-yl)-N-[(1R)-1-(1-naphthyl)ethyl]benzamide]
SARS-CoV-2 PLpro
  IC50: < 2 µM
[1]
  % Cell Viability: 56.9%

## Cc1ccc(N2CCN(C)CC2)cc1C(=O)N[C@H](C)c1cccc(Br)c1 [Example 22, N-[(1R)-1-(3-Bromophenyl)ethyl]-2-methyl-5-(4-methylpiperazin-1-yl)benzamide]
SARS-CoV-2 PLpro
  IC50: < 5 µM
[1]
  % Cell Viability: 65.5%

## Cc1ccc(N2CCN(C)CC2)cc1C(=O)N[C@H](C)c1cccc(N2CCN(C)CC2)c1 [Example 104]
[1]
  % Cell Viability: 82.7%

## Cc1ccc(N2CCCN(CCS(C)(=O)=O)CC2)cc1C(=O)N[C@H](C)c1cccc2ccccc12 [Example 177, 2-Methyl-5-[4-(2-methylsulfonylethyl)-1,4-diazepan-1-yl]-N-[(1R)-1-(1-naphthyl)ethyl]benzamide]
SARS-CoV-2 PLpro
  IC50: < 20 µM

## Cc1ccc(N2CCN(C)CC2)cc1C(=O)N[C@H](C)c1cccc2c1OCCO2 [Example 183, N-[(1R)-1-(2,3-Dihydro-1,4-benzodioxin-5-yl)ethyl]-2-methyl-5-(4-methylpiperazin-1-yl)benzamide]
SARS-CoV-2 PLpro
  IC50: < 20 µM

## Cc1ccc(N2CCN(C)CC2)cc1C(=O)N[C@H](C)c1cccs1 [Example 191, 2-Methyl-5-(4-methylpiperazin-1-yl)-N-[(1R)-1-(2-thienyl)ethyl]benzamide hydrochloride salt]
SARS-CoV-2 PLpro
  IC50: < 100 µM

## Cc1ccc(N2CCN(C)CC2)cc1C(=O)N[C@H](C)c1cncc(Br)c1 [Example 193, N-[(1R)-1-(5-Bromo-3-pyridyl)ethyl]-2-methyl-5-(4-methylpiperazin-1-yl)benzamide]
SARS-CoV-2 PLpro
  IC50: < 100 µM

## COc1c(Br)cccc1[C@@H](C)NC(=O)c1cc(N2CCN(C)CC2)ccc1C [Example 194, N-[(1R)-1-(3-Bromo-2-methoxy-phenyl)ethyl]-2-methyl-5-(4-methylpiperazin-1-yl)benzamide]
SARS-CoV-2 PLpro
  IC50: < 100 µM

## Cc1ccc(N2CCN(C)CC2)cc1C(=O)N[C@H](C)c1cc(Cl)cc(-c2cnn(C)c2)c1 [Example 257, N-[(1R)-1-[3-Chloro-5-(1-methylpyrazol-4-yl)phenyl]ethyl]-2-methyl-5-(4-methylpiperazin-1-yl)benzamide]
SARS-CoV-2 PLpro
  IC50: < 2 µM

## Cc1ccc(N2CCN(C)CC2)cc1C(=O)N[C@H](C)c1cc(OCC2CC2)cc(-c2cnn(C)c2)c1 [Example 277, N-[(1R)-1-[3-(Cyclopropylmethoxy)-5-(1-methylpyrazol-4-yl)phenyl]ethyl]-2-methyl-5-(4-methylpiperazin-1-yl)benzamide]
SARS-CoV-2 PLpro
  IC50: < 2 µM

## CCOc1cc(-c2cnn(C)c2)cc([C@@H](C)NC(=O)c2cc(N3CCN(C)CC3)ccc2C)c1 [Example 278, N-[(1R)-1-[3-Ethoxy-5-(1-methylpyrazol-4-yl)phenyl]ethyl]-2-methyl-5-(4-methylpiperazin-1-yl)benzamide]
SARS-CoV-2 PLpro
  IC50: < 2 µM

## Cc1ccc(N2CCN(C)CC2)cc1C(=O)N[C@H](C)c1cc(OC(C)C)cc(-c2cnn(C)c2)c1 [Example 279, N-[(1R)-1-[3-Isopropoxy-5-(1-methylpyrazol-4-yl)phenyl]ethyl]-2-methyl-5-(4-methylpiperazin-1-yl)benzamide]
SARS-CoV-2 PLpro
  IC50: < 2 µM

## Cc1ccc(N2CCN(C)CC2)cc1C(=O)N[C@H](C)c1cc(OCCO)cc(-c2cnn(C)c2)c1 [Example 281, N-[(1R)-1-[3-(2-Hydroxyethoxy)-5-(1-methylpyrazol-4-yl)phenyl]ethyl]-2-methyl-5-(4-methylpiperazin-1-yl)benzamide]
SARS-CoV-2 PLpro
  IC50: < 2 µM

## Cc1ccc(N2CCN(C)CC2)cc1C(=O)N[C@H](C)c1cc(OC(F)F)cc(-c2cnn(C)c2)c1 [Example 283, N-[(1R)-1-[3-(Difluoromethoxy)-5-(1-methylpyrazol-4-yl)phenyl]ethyl]-2-methyl-5-(4-methylpiperazin-1-yl)benzamide]
SARS-CoV-2 PLpro
  IC50: < 2 µM

## COc1cc(-c2cn(C)nc2C)cc([C@@H](C)NC(=O)c2cc(C3CCNCC3)ccc2C)c1 [Example 304, N-[(1R)-1-[3-(1,3-Dimethylpyrazol-4-yl)-5-methoxy-phenyl]ethyl]-2-methyl-5-(4-piperidyl)benzamide]
SARS-CoV-2 PLpro
  IC50: < 2 µM

## COc1cc([C@@H](C)NC(=O)c2cc(N3CCN(C)CC3)ccc2C)ccc1O [Example 305, N-[(1R)-1-(4-Hydroxy-3-methoxy-phenyl)ethyl]-2-methyl-5-(4-methylpiperazin-1-yl)benzamide]
SARS-CoV-2 PLpro
  IC50: < 5 µM

## Cc1ccc(N2CCN(C)CC2)cc1C(=O)N[C@H](C)c1cccc(C(=O)N2CCN(C)CC2)c1 [Example 307, 2-Methyl-N-[(1R)-1-[3-(4-methylpiperazine-1-carbonyl)phenyl]ethyl]-5-(4-methylpiperazin-1-yl)benzamide]
SARS-CoV-2 PLpro
  IC50: < 2 µM

## Cc1ccc(N2CCN(C)CC2)cc1C(=O)N[C@H](C)c1cccc(C(=O)NCCO)c1 [Example 313, N-[(1R)-1-[3-(2-Hydroxyethylcarbamoyl)phenyl]ethyl]-2-methyl-5-(4-methylpiperazin-1-yl)benzamide]
SARS-CoV-2 PLpro
  IC50: < 20 µM

## CNCCN(C)C(=O)c1cccc([C@@H](C)NC(=O)c2cc(N3CCN(C)CC3)ccc2C)c1 [Example 314, 2-Methyl-N-[(1R)-1-[3-[methyl-[2-(methylamino)ethyl]carbamoyl]phenyl]ethyl]-5-(4-methylpiperazin-1-yl)benzamide Dihydrochloride Salt]
SARS-CoV-2 PLpro
  IC50: < 20 µM

## C[C@@H](NC(=O)c1ccnc(N2CCN(C)CC2)n1)c1cccc2ccccc12 [Example 316, 2-(4-Methylpiperazin-1-yl)-N-[(1R)-1-(1-naphthyl)ethyl]pyrimidine-4-carboxamide Hydrochloride Salt]
SARS-CoV-2 PLpro
  IC50: < 100 µM

## C[C@@H](NC(=O)c1ccnc(N2CCN(CCO)CC2)n1)c1cccc2ccccc12 [Example 317, 2-[4-(2-Hydroxyethyl)piperazin-1-yl]-N-[(1R)-1-(1-naphthyl)ethyl]pyrimidine-4-carboxamide hydrochloride salt]
SARS-CoV-2 PLpro
  IC50: > 100 µM

## C[C@@H](NC(=O)c1ccnc(N2CC[C@H](N)C2)n1)c1cccc2ccccc12 [Example 318, 2-[(3S)-3-Aminopyrrolidin-1-yl]-N-[(1R)-1-(1-naphthyl)ethyl]pyrimidine-4-carboxamide]
SARS-CoV-2 PLpro
  IC50: < 100 µM

## C[C@@H](NC(=O)c1ccnc(N2CC[C@@H](N)C2)n1)c1cccc2ccccc12 [Example 319, 2-[(3R)-3-Aminopyrrolidin-1-yl]-N-[(1R)-1-(1-naphthyl)ethyl]pyrimidine-4-carboxamide Hydrochloride Salt]
SARS-CoV-2 PLpro
  IC50: > 100 µM

## C[C@@H](NC(=O)c1cncc(N2CCN(C)CC2)n1)c1cccc2ccccc12 [Example 320, 6-(4-Methylpiperazin-1-yl)-N-[(1R)-1-(1-naphthyl)ethyl]pyrazine-2-carboxamide Hydrochloride Salt]
SARS-CoV-2 PLpro
  IC50: < 100 µM
